Assay results published in US20120022129A1, “Targeting of Histone Deacetylase 2, Protein Kinase CK2, and Nuclear Factor NRF2 For Treatment of Inflammatory Diseases” (priority 2008, published 2012).
Where a SMILES comes first, the peptide text is derived from it. [ ]: non-standard residue; d: D form. Nle = CCCC[C@H](N)C(=O)O

How the values were obtained:
[1] = system: HDAC2; assay: HDAC2 levels by western blot in MonoMac6 cells; conditions: then CSE 2.5% 6 h
Method: The human monocyte-macrophage cell line (MonoMac6) was established from the peripheral blood of a subject with monoblastic leukemia (21). […]
MonoMac6 cells were washed with Ca^2+/Mg^2+ free PBS and seeded at a density of 5.0×10^6 cells in 100 mm culture plates in a total volume of 7 ml RPMI-1640 containing 0.5% FBS. […] Cells were treated with CSE (2.5%), washed in ice-cold sterile Ca^2+/Mg^2+ free PBS and lysed in RIPA buffer (50 mM Tris HCl pH 7.4, 150 mM NaCl, 0.25 mM EDTA, 5 mM NaF, 0.1% sodium deoxycholate, 1% Triton X-100); cell extracts and cell culture media were stored at −80° C. until analyzed.
Cells were lysed in 100 μl RIPA buffer supplemented with protease inhibitor cocktail (leupeptin, aprotinin, pepstatin and PMSF) and stored at −80° C. […] After extensive washing, primary antibodies were detected with secondary antibodies linked to horseradish peroxidase (Dako, Carpinteria, Calif.) and bound complex detected with enhanced chemiluminescence (PerkinElmer, Waltham, Mass.).

[2] = system: HDAC2; assay: Ubiquitination of immunoprecipitated HDAC2 in MonoMac6 cells; format: cell-based, human
Method: FIG. 4: CSE-mediated degradation of HDAC2 is ubiquitin-proteasome dependent in MonoMac6 cells. […] Immunoprecipitated HDAC2 was assayed for bound ubiquitin using specific ubiquitin anti-sera. […] (D) The relative density of ubiquitin expression in MonoMac6 cells after proteasome inhibition of CSE-induced HDAC2 degradation normalized to immunoprecipitated HDAC2.
(§1) Cell lysate controls were used.
(§2) To further confirm this hypothesis, it was determined if exposure to okadaic acid would induce ubiquitination and degradation of HDAC2. […] Immunoprecipitated HDAC2 was then assayed for the presence of ubiquitinated residues using specific ubiquitin anti-sera by western blot. […] To further confirm the hypothesis, MonoMac6 cells were treated with okadaic acid (1 μM) for 0.5 h, cells were fixed in 4% paraformaldehyde and immunostained with anti-HDAC2 antibodies to determine HDAC2 localization.

[3] = system: A549 epithelial cells; assay: Histone acetylation:deacetylation in A549 epithelial cells; format: cell-based
Excerpt: The effect of cigarette smoke extract/condensate (CSC/CSE) and oxidative stress on histone acetylation:deacetylation and pro-inflammatory gene transcription in A549 epithelial cells has been investigated. […] CSE-mediated decrease in HDAC2 level was associated with posttranslational modifications by 4-hydroxy-2-nonenal and nitric oxide radicals generated by cigarette smoke exposure.

[4] = system: HDAC2; assay: Serine phosphorylation of immunoprecipitated HDAC2 in H292 cells; format: cell-based, human
Method: FIG. 6: CSE induced CK2-dependent HDAC2 phosphorylation in bronchial epithelial and small airway epithelial cells. [A (i)] H292 cells were treated with CSE (2.5%) for 0.5, 1, 2 and 4 h. Immunoprecipitated HDAC2 was analyzed for phosphorylation of serine residues using specific phospho-serine antibodies by SDS polyacrylamide gel. CSE induced significant cyclical phosphorylation of HDAC2 on serine residues at 0.5, 1 and 4 h. [A (ii)] Relative density of phosphor-serine expression normalized to immunoprecipitated HDAC2. [B (i)] […] Immunoprecipitated HDAC2 from whole cell lysates was probed for phosphorylation of serine residues, CSE induced a dose-dependent increase in HDAC2 serine phosphorylation. [B (ii)] Relative density of phospho-serine expression normalized to immunoprecipitated HDAC2. (C) H292 cells were treated with or without specific CK2 inhibitor, TBB. for 1 h, cells were washed with sterile 1×PBS and then treated with freshly prepared CSE (2.5%) for 0.5 h, Immunoprecipitated HDAC2 was assayed for phosphorylation on serine residues. […] (D) Relative density of phosphor-serine expression normalized to immunoprecipitated HDAC2.
FIG. 14: Loss of Serine Sites S^394, S^422, S^424 Abrogates Cigarette Smoke Extract (CSE)-Induced Phosphatase-Independent HDAC2 Phosphorylation. A) Bronchial epithelial H292 cells were transfected with plasmid vector or flag-tagged WT HDAC2 (1-488) for 24 h using lipofectamine 2000 and then treated with or without 2.5% CSE for 0.5 h or B) 50 μM. acrolein for 1 h. Flag-tagged proteins were immunoprecipitated overnight and serine phosphorylation detected by western blots using phospho-serine antibodies. C) Flag-tagged WT HDAC2 was immunoprecipitated from whole cell lysates of H292 cells treated with 2.5% CSE for 0.5 h. Immunoprecipates were then washed and treated with 400 U of λ-phosphatase or buffer alone for 1 h at 30° C. Phosphorylation of serine sites were detected by western blots using anti-serine antibodies. D) H292 cells were transfected with plasmid vector, flag-tagged WT HDAC2 (1-488) or S394A, S394/411/422/424A and 1-400 aa HDAC2 mutants for 24 h with lipofectamine 2000. Cells were then treated with 2.5% CSE for 0.5 h. Serine phosphorylation of immunoprecipitated flag proteins was determined by western blot. E) Phosphatase activity was determined using non-radioactive assay system (Promega). H292 cells were treated with or without 2.5% CSE for 0.5, 2 and 6 h with serine/threonine […] (okadaic acid) used as a positive control. 5 μg protein was incubated with PP2A specific-peptide substrate RRA(pT)VA and reaction buffer for 15 minutes in a 96-well plate. Molybdate dye/additive mixture was added to stop the reaction and color allowed to develop for 15 minutes. Optical density of samples was determined using a microplate reader with a 630 nm filter.
FIG. 18: Protein Kinase CK2 Inhibitors Blocks CSE-Induced HDAC2 Phosphorylation. A) Bronchial epithelial H292 cells transfected with a flag-tagged WT HDAC2 plasmid were treated with 2.5% CSE for 0.5 h. […] B) Relative density of phospho-serine expression normalized to immunoprecipitated HDAC2. Data expressed as mean±SEM (n=3). *** P<0.001, ### P<0.001 significant compared to control treatments.
as §1

[5] = system: HDAC2; assay: Co-immunoprecipitation of flag-tagged HDAC2 with binding partners in H292 cells; format: cell-based, human; conditions: H292, flag-tagged WT HDAC2; TBB 40 μM 2 h and 90 μM 0.5 h, then CSE 2.5% 0.5 h
Method: FIG. 16: HDAC2 serine phosphorylation is associated with increased interaction with catalytic subunits of protein kinase CK2 in response to CSE. A) Bronchial epithelial H292 cells transfected with either a control vector (control V) or flag-tagged WT HDAC2 were treated with 2.5% CSE for 0.5 h. […] C) Bronchial epithelial H292 cells transfected with flag-tagged WT HDAC2 were treated with either 2.5% CSE for 0.5 h, 25 or 50 μM Acrolein for 1 h and 200 μM H202 for 0.5 and 2 h respectively.
A) H292 cells cultured on 8-well chamber slides were treated with 2.5% CSE for 0.5 h or 50 μM Acrolein for 1 h, washed and fixed with 4% PFA. Slides were incubated with HDAC2 and α-tubulin antibodies overnight at […]. Slides were mounted with antifade mounting solution and images analysed by an Olympus inverted microscope. B) H292 cells were transfected with plasmid vector (Ctrl V) or flag-tagged WT HDAC2 (1-488) for 24 h with lipofectamine 2000. Cells were treated with 2.5% CSE for 0.5 h and flag proteins immunoprecipitated using M2 anti-flag antibodies overnight at 4° C. HDAC1 and C) p53 interaction were determined by western blot. D) H292 cells were transfected with plasmid vector (Ctrl V), flag-tagged WT HDAC2 (1-488) or S^394/^411/^422/^424A and 1-400 amino acid HDAC2 mutants for 24 h with lipofectamine 2000. Cells were then exposed to 2.5% CSE for 0.5 h. Levels of HDAC2 interaction with HDAC1 were determined by western blotting using specific antibodies. E) H292 cells were transfected with flag-tagged WT HDAC2 (1-488) for 24 h with lipofectamine 2000. […] Levels of phospho-serine and HDAC2 interaction with SAP30, RbAp46/48, MBD3 and p65 were determined by western blotting using specific antibodies respectively. […] Levels of HDAC1 and p65 binding to immunoprecipitated flag-tagged HDAC2 was determined by western blotting. […] Deacetylase activity of immunoprecipitated HDAC2 was determined using a specific HDAC2 deacetylase activity kit. Data expressed as mean±SEM (n=3). *** P<0.001 significant compared to control treatments.

[6] = system: LPS-induced lung inflammation; assay: LPS-induced lung inflammation in HDAC2−/− mice; format: in vivo, mouse
Excerpt: Mice. The Nrf2 knockout (KO) mouse strain (Nrf2−/− on C57BL/6J background) used in this study is described earlier and was generously supplied by Prof. Masayuki Yamamoto, University of Tsukuba, Japan via the RIKEN BioResource Center, Tsukuba, Japan. HDAC2 mutant (HDAC2−/− on C57BL/6J background) mice were kindly provided by Dr. J. A. Epstein (University of Pennsylvania School of Medicine, Philadelphia, Pa.). […] Wild-type (WT) C57BL/6J mice were purchased from Jackson laboratories (Bar Harbor, Me.). All animal protocols for this study were approved by the University Committee on Animal Research of the University of Rochester.
LPS exposure studies in mice were performed as described previously. Briefly, age-matched WT, Nrf2−/− and HDAC2−/− were exposed to aerosolized Escherichia coli LPS (1 mg/ml) for 8 minutes. […]
Bronchoalveolar lavage. […] Supernatants were frozen at −80° C. until required for further analysis and cell pellets resuspended in 1 ml of saline, and total number of cells determined using a haemocytometer. Differential counts (minimum 500 per slide) were determined using Diff-Quik (Dade Behring, Newark, Del.)-stained cytospin slides.
Cytokine Analysis. Monocyte chemotactic protein 1 (MCP-1) levels were measured from mouse lung soluble protein by enzyme-linked immunosorbent assay (ELISA) with the duo-antibody kit (R & D Systems). […]

[7] = system: LPS-induced lung inflammation; assay: LPS-induced lung inflammation in WT mice; format: in vivo, mouse
Method: LPS exposure studies in mice were performed as described previously. Briefly, age-matched WT, Nrf2−/− and HDAC2−/− were exposed to aerosolized Escherichia coli LPS (1 mg/ml) for 8 minutes. Aerosolized saline-exposed mice were used as controls, and animals were sacrificed at 24 h post last exposure.
Corticosteroid treatment.
Bronchoalveolar lavage. Mice were anaesthetized by pentobarbital (Abbott Laboratories, Abbott Park, Ill.) intraperitoneal injection (100 mg/kg body weight) before sacrifice. Lungs were then removed and lavaged three times with 0.6 ml of 0.9% sodium chloride with cannula inserted into the trachea. Total lavage fluid for each mouse was combined and then centrifuged. Supernatants were frozen at −80° C. until required for further analysis and cell pellets resuspended in 1 ml of saline, and total number of cells determined using a haemocytometer. Differential counts (minimum 500 per slide) were determined using Diff-Quik (Dade Behring, Newark, Del.)-stained cytospin slides.
Cytokine Analysis. Monocyte chemotactic protein 1 (MCP-1) levels were measured from mouse lung soluble protein by enzyme-linked immunosorbent assay (ELISA) with the duo-antibody kit (R & D Systems). Results were normalized to protein concentration per sample.

[8] = system: HDAC2; assay: HDAC2 immunostaining (localization) in MonoMac6 cells; format: cell-based, human; conditions: okadaic acid 1 μM, 0.5 h
Method: (B) Relative density of HDAC2 levels in human macrophage cells (MonoMac6 cells) at various time points of exposure to CSE.
To determine if CSE induced significant HDAC2 nucleo-cyloplasmic shuttling, MonoMac6 cells were treated with CSE (2.5%) for 4 and 6 h, cells were fixed in 4% paraformaldehyde and immunostained with anti-HDAC2 antibodies to determine HDAC2 localization. […] To determine whether shuttling occurred at earlier time points subsequent to degradation of HDAC2, MonoMac6 cells were exposed to CSE (2.5%) for 0.5 h and 1 h (data not shown).
as §2

[9] = system: HDAC2; assay: Phosphorylation of immunoprecipitated HDAC2 in MonoMac6 cells; conditions: okadaic acid 1 μM, 0.5 and 1 h
Method: MonoMac6 cells were washed with Ca^2+/Mg^2+ free PBS and seeded at a density of 5.0×10^6 cells in 100 mm culture plates in a total volume of 7 ml RPMI-1640 containing 0.5% FBS. Cells were treated with CSE (2.5%) or Okadaic acid (40 nM and 1 μM) (Alexis Biochemicals, San Diego, Calif.). For treatments with protein casein kinase CK2 inhibitor, 4,5,6,7-tetrabromobenzotriazole (TBB), cells were pretreated with 20 μM TBB (Sigma, St. Louis, Mo.) for 1 or 2 h, cells were then washed with sterile PBS before treatment with CSE. […] Cells were treated with CSE (2.5%), washed in ice-cold sterile Ca^2+/Mg^2+ free PBS and lysed in RIPA buffer (50 mM Tris HCl pH 7.4, 150 mM NaCl, 0.25 mM EDTA, 5 mM NaF, 0.1% sodium deoxycholate, 1% Triton X-100); cell extracts and cell culture media were stored at −80° C. until analyzed.
Cell lysate (200 μg protein) was incubated for overnight with anti-HDAC2 (2 μg) at 4° C., then immunoprecipitated with Protein G-agarose beads for 1 h with constant agitation. Beads were washed at least four times with RIPA buffer, boiled for 10 minutes in 35 μl 2× sample buffer and resolved on a 7.5% SDS-polyacrylamide gel. Cell lysate controls were used. Blots were probed with p-serine (1:1000) and p-threonine (1:1000) (Cell Signaling, Boston, Mass.) monoclonal antibodies for studies on the post-translational modification of HDAC2.

[10] = system: CK2α; assay: CK2α phosphorylation in H292 cells; format: cell-based, human; conditions: okadaic acid 100 nM and 1 μM, 0.5 and 1 h
Method: FIG. 15: CK2α Is Phosphorylated In Response to CSE. […] 80 μg whole cell lysates were then treated with 400 U of λ-phosphatase or buffer alone for 1 h at 30° C. The reaction was stopped by adding equal volume of 2× sample buffer and relative CK2α expression determined by western blotting. D) H292 cells were treated with 100 nM and 1 μM okadaic acid for 0.5 and 1 h. Relative CK2α expression was determined by western blotting using 20 μg whole cell lysates.

[11] = system: MonoMac6 cells; format: cell-based, human
Method: In this study, it was determined the time-dependent effect of CSE on class I HDAC levels MonoMac6 cells were exposed to CSE (2.5%) for 0.5, 1, 2, 4 and 6 h. […] To determine whether class 1 HDAC degradation was due to decreased CSE-induced cell viability, the levels of lactate dehydrogenase (LDH) secreted into conditioned cell media was measured immediately after harvest.

CCCC[C@@H](C=O)NC(=O)[C@H](CC(C)C)NC(=O)[C@H](CC(C)C)NC(C)=O [ALLN, N-Acetyl-Leu-Leu-Nle-CHO] (Ac-Leu-Leu-[Nle]-aldehyde)
CSE-induced HDAC2 degradation ([1]; ALLN 1 μM and 5 μM pretreated 2 h): dose-dependently inhibited HDAC2 degradation | CSE-induced HDAC2 ubiquitination ([2]; ALLN 1 μM pre-treatment, CSE 2.5% 6 h): further enhanced

OO [H2O2, hydrogen peroxide]
histone deacetylase (HDAC) activity and HDAC2 protein levels ([3]; H2O2): inhibited | histone acetylation (with histone acetyltransferase activity) ([3]; hydrogen peroxide 100 μM): caused an increase in histone acetylation | HDAC2 phosphorylation ([4]; H292, flag-tagged WT HDAC2, H2O2 200 μM, 0.5 and 2 h): inability

Brc1c(Br)c(Br)c2[nH]nnc2c1Br [TBB]
CSE-induced HDAC2 degradation ([1]; TBB 20 μM pre-treated 2 h): significantly attenuated HDAC2 degradation | HDAC2 interaction with HDAC1 and p65 [5]: blocked HDAC2 interaction with both HDAC1 and p65 | CSE-induced HDAC2 phosphorylation ([4]; H292, flag-tagged WT HDAC2, TBB 50 μM pre-treated 2 h, then CSE 2.5% 0.5 h): completely inhibiting CSE-induced HDAC2 phosphorylation | CSE-induced HDAC2 phosphorylation ([4]; H292, TBB 20 μM pretreated 1 h, then CSE 0.5 h): completely reversed CSE-induced HDAC2 phosphorylation | CSE-induced HDAC2 phosphorylation ([4]; H292, TBB 25 μM pre-treated, then CSE): inhibit HDAC2 phosphorylation but not as efficiently

CCCC1O[C@@H]2C[C@H]3[C@@H]4CCC5=CC(=O)C=C[C@]5(C)[C@H]4[C@@H](O)C[C@]3(C)[C@]2(C(=O)CO)O1 (stereo partly drawn) [budesonide]
neutrophil counts in BALF ([6]; budesonide 3 mg/kg pretreatment, LPS): no effect | efficacy in decreasing MCP-1 release ([6]; budesonide, LPS exposure): 26.4% | attenuation of lung neutrophil influx following LPS exposure ([7]; budesonide 3 mg/kg pretreatment): ~50% | efficacy in decreasing MCP-1 release ([7]; budesonide, LPS exposure): 49.4%

C=C1[C@@H](O)[C@@H]2O[C@]3(CC[C@H](/C=C/[C@@H](C)[C@@H]4CC(C)=C[C@@]5(O[C@H](C[C@@](C)(O)C(=O)O)CC[C@H]5O)O4)O3)CC[C@H]2O[C@@H]1[C@@H](O)C[C@H](C)[C@H]1O[C@@]2(CCCCO2)CC[C@H]1C [okadaic acid]
nuclear HDAC2 (immunostaining) [8]: significantly induced the loss of nuclear HDAC2 | nucleo-cytoplasmic shuttling of HDAC2 [8]: no nucleo-cytoplasmic shuttling of HDAC2 was observed | phosphorylation of HDAC2 on serine residues [9]: significantly induced the phosphorylation of HDAC2 on serine residues | CK2α phosphorylation [10]: induced CK2α phosphorylation | ubiquitination of HDAC2 ([2]; okadaic acid 40 nM, 24 h): significantly induced the ubiquitination of HDAC2 | toxicity to cells (trypan blue viability, morphology) ([11]; okadaic acid 40 nM, 24 h): not toxic to the cells | cell death ([11]; okadaic acid 1 μM, beyond 1 h): induced cell death
